Results on three molecules are retold here after patent publication US7674815B2, “Heteroaryl and benzyl amide compounds” (Hoffmann-La Roche Inc., priority 2006, dated 2010).

Molecules are shown by their SMILES.

The experiment addresses T1, cholesteryl ester transfer protein (CETP) (Homo sapiens, UniProt P11597).
T1 construct: the source of CETP was human lipoprotein-deprived serum (LPDS); from tissue; host or cells: human lipoprotein-deprived serum (LPDS)
T1 sequence (P11597 18-493): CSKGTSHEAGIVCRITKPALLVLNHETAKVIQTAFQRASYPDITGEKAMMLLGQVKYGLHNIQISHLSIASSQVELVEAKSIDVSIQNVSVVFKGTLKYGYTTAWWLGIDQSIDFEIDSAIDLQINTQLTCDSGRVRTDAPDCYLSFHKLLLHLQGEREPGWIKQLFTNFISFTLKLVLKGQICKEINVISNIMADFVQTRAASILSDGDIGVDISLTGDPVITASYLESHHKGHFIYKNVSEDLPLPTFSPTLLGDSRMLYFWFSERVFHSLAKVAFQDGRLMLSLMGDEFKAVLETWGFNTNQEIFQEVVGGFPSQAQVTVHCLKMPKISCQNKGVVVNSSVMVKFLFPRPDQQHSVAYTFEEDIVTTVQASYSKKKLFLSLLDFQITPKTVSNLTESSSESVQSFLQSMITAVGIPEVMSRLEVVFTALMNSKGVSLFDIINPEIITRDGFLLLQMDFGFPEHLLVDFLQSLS
The experiment in a line: CETP inhibition SPA assay in the presence of plasma (CETP source human lipoprotein-deprived serum). In kind it is biochemical. The settings on record: source of CETP human lipoprotein-deprived serum (LPDS), radiolabeled cholesteryl ester transfer HDL to LDL. As for the experimental part: Activity of CETP inhibitors was determined using a buffer assay system. Partially purified CETP transferred radiolabeled cholesteryl ester from HDL donor particles to biotin-labeled LDL acceptor particles. The reaction was stopped by addition of streptavidin-coupled scintillation proximity assay (SPA) beads. These beads captured the biotinylated acceptor particles and transferred radioactivity was measured. The assay system was purchased and performed according to manufacturer's recommendations (Amersham Biosciences). Inhibitory activity of compounds was determined as percentage of positive control activity containing CETP together with donor and acceptor particles. Serial dilution of compounds was performed in order to determine the IC50 values.
Activity of the compounds was subsequently measured in the presence of plasma using the same assay as described above except that the source of CETP was human lipoprotein-deprived serum (LPDS). Inhibitory activity of compounds was determined as percentage of positive control activity containing all the assay components except compound. Serial dilution of compounds was performed in order to determine the IC50 values.

Broadly, the IC50 is the point on the concentration scale where inhibition reaches its midpoint. In the case of `O=C(c1cc(Cl)cc2cc[nH]c12)N(CCc1ccc(Cl)c(Cl)c1)Cc1cc2ccccc2o1` [Compound 1, 5-chloro-1H-indole-7-carboxylic acid benzofuran-2-ylmethyl-[2-(3,4-dichloro-phenyl)-ethyl]-amide], the IC50 worked out at 7.02 µM.
As to `CNc1ncc(Cl)cc1C(=O)N(CCc1cccc(C(F)(F)F)c1)Cc1ccc(C(C)(C)C)s1` [Compound 53, N-(5-tert-butyl-thiophen-2-ylmethyl)-5-chloro-2-methylamino-N-[2-(3-trifluoromethyl-phenyl)-ethyl]-nicotinamide], the IC50 was determined as 0.056 µM.
For `CNc1cnc(Cl)cc1C(=O)N(CCc1ccc(Cl)c(Cl)c1)Cc1ccc(C(C)(C)C)nc1` [Compound 38, N-(6-tert-butyl-pyridin-3-ylmethyl)-2-chloro-N-[2-(3,4-dichloro-phenyl)-ethyl]-5-methylamino-isonicotinamide], the IC50 was found to be 0.282 µM.
